The assay concerns the target T1, human p38 kinase alpha (Homo sapiens, UniProt Q16539).
T1 construct: The coding region of the human p38α cDNA was obtained by PCR-amplification from RNA isolated from the human monocyte cell line THP.1; made in house; host or cells: E. coli DH10B
Kind of assay: In vitro p38 kinase inhibition analysis (PHAS-I 32P-ATP or EGFRP 33P-ATP format). As to conditions: Table 2; additional pyrazole compounds, Examples 56-169; read-out: p38α Kinase Inhibition (IC50 in μM). The assay is classed as biochemical. The protocol: The ability of compounds to inhibit human p38 kinase alpha was evaluated using one of two in vitro assay methods. In the first method, activated human p38 kinase alpha phosphorylates a biotinylated substrate, PHAS-I (phosphorylated heat and acid stable protein-insulin inducible), in the presence of gamma ^32P-ATP (^32P-ATP). PHAS-I was biotinylated before the assay, and provided a means of capturing the substrate which was phosphorylated during the assay. p38 Kinase was activated by MKK6. Compounds were tested in 10 fold serial dilutions over the range of 100 μM to 0.001 μM using 1% DMSO. Each concentration of inhibitor was tested in triplicate.
All reactions were carried out in 96 well polypropylene plates. Each reaction well contained 25 mM HEPES pH 7.5, 10 mM magnesium acetate, and 50 μM unlabeled ATP. […] Activated human p38 kinase alpha was used at 1 μg per 50 μl reaction volume, representing a final concentration of 0.3 μM. Gamma ^32P-ATP was used to follow the phosphorylation of PHAS-I. ^32P-ATP has a specific activity of 3000 Ci/mmol, and was used at 1.2 μCi per 50 μl reaction volume. The reaction proceeded either for one hr or overnight at 30° C.
Following incubation, 20 μl of reaction mixture was transferred to a high capacity streptavidin coated filter plate (SAM-streptavidin-matrix, Promega) prewetted with phosphate buffered saline. The transferred reaction mix was allowed to contact the streptavidin membrane of the Promega plate for 1-2 min. […] Filter plates were air dried and 20 μl of scintillant was added. The plates were sealed and counted.
A second assay format was alternatively employed. This assay is based on p38 kinase alpha being induced phosphorylation of EGFRP (epidermal growth factor receptor peptide, a 21 mer) in the presence of ^33P-ATP. Compounds were tested in 10 fold serial dilutions over the range of 100 μM to 0.001 μM in 10% DMSO. Each concentration of inhibitor was tested in triplicate. Compounds were evaluated in 50 μl reaction volumes in the presence of 25 mM HEPES pH 7.5, 10 mM magnesium acetate, 4% glycerol, 0.4% bovine serum albumin, 0.4 mM DTT, 50 μM unlabeled ATP, 25 μg EGFRP (200 μM), and 0.05 uCi gamma ^33P-ATP. Reactions were initiated by addition of 0.09 μg of activated, purified human GST-p38 kinase alpha. Activation was carried out using GST-MKK6 (5:1,p38:MKK6) for one hr at 30° C. in the presence of 50 μM ATP. Following incubation for 60 min at room temperature, the reaction was stopped by addition of 150 μl of AG 1×8 resin in 900 mM sodium formate buffer, pH 3.0 (1 volume resin to 2 volumes buffer). The mixture was mixed three times with pipetting. Afterward, the resin was allowed to settle. A total of 50 μl of clarified solution head volume was transferred from the reaction wells to Microlite-2 plates. 150 μl of Microscint 40 was then added to each well of the Microlite plate, and the plate was sealed, mixed, and counted.

“And” between values parts separate entries of the source, which are not always exact repeats. Equal values may be shown once.

T1 sequence (Q16539 whole entry): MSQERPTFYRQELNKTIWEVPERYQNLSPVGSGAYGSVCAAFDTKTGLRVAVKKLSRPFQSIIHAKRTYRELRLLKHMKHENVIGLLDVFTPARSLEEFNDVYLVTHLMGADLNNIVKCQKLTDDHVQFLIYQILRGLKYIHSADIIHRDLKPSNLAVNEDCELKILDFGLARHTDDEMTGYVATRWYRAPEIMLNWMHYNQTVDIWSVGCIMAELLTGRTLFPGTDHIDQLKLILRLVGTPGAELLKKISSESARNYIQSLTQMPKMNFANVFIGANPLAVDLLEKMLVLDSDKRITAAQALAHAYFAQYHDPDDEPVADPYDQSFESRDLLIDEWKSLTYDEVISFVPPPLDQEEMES

Take `C[C@H](N[C@H]1CC[C@H](c2[nH]nc(-c3ccc(Cl)cc3)c2-c2ccncn2)CC1)c1ccccc1` [Example 121]: the IC50 was found to be 0.00856 µM.
Turning to `C[C@@H](N[C@H]1CC[C@@H](c2[nH]nc(-c3ccc(Cl)cc3)c2-c2ccncn2)CC1)c1ccccc1` [Example 122], the IC50 is 0.0449 µM.
To `C[C@@H](N[C@H]1CC[C@H](c2[nH]nc(-c3ccc(Cl)cc3)c2-c2ccncn2)CC1)c1ccccc1` [Example 123] belongs 0.0427 µM.
As for `C[C@@H](N[C@H]1CC[C@H](c2[nH]nc(-c3ccc(Cl)cc3)c2-c2ccncn2)CC1)c1ccccc1` [Example 124], the figure is 0.0452 µM; as for `C[C@@H](N[C@H]1CC[C@@H](c2[nH]nc(-c3ccc(Cl)cc3)c2-c2ccncn2)CC1)c1ccc(F)cc1` [Example 126], 0.13 µM; as for `C[C@H](N[C@H]1CC[C@H](c2[nH]nc(-c3ccc(Cl)cc3)c2-c2ccncn2)CC1)c1ccc(F)cc1` [Example 128], 0.00576 µM.
To `CN(C)CC(=O)OCC(=O)N1CCC(c2[nH]nc(-c3ccc(Cl)cc3)c2-c2ccncn2)CC1` [Example 130] belongs 0.0438 µM; to `CC(C)(C)OC(=O)N1CCC(c2[nH]nc(-c3ccc(Cl)cc3)c2-c2ccnc(OC3CCCC3)n2)CC1` [Example 131], 1.68 µM.
As to `CC(C)(C)OC(=O)N1CCC(c2[nH]nc(-c3ccc(Cl)cc3)c2-c2ccnc(O[C@@H]3CCOC3)n2)CC1` [Example 132], the 50% inhibitory concentration (IC50) was determined as 3.34 µM.
For the compound `CC(C)(C)OC(=O)N1CCC(c2[nH]nc(-c3ccc(Cl)cc3)c2-c2ccnc(Oc3ccccc3C#N)n2)CC1` [Example 133], the IC50 was found to be 0.848 µM.
Consider `CC(C)(C)OC(=O)N1CCC(c2[nH]nc(-c3ccc(Cl)cc3)c2-c2ccnc(Oc3cccc(C#N)c3)n2)CC1` [Example 134], for which the IC50 amounted to 1.59 µM.
`CC(C)(C)OC(=O)N1CCC(c2[nH]nc(-c3ccc(Cl)cc3)c2-c2ccnc(Oc3ccc(C#N)cc3)n2)CC1` [Example 135]: the concentration for half-maximal inhibition (IC50) amounted to 1.5 µM.
Regarding `CC(C)(C)OC(=O)N1CCC(c2[nH]nc(-c3ccc(Cl)cc3)c2-c2ccnc(OCCN3CCOCC3)n2)CC1` [Example 136], the concentration for half-maximal inhibition (IC50) worked out at 16.9 µM.
In the case of `CN(C)CCOc1nccc(-c2c(-c3cccc(Cl)c3)n[nH]c2C2CCN(C(=O)OC(C)(C)C)CC2)n1` [Example 137], the IC50 was found to be 9.34 µM.
To `CN(C)CCOc1nccc(-c2c(-c3cccc(Cl)c3)n[nH]c2C2CCNCC2)n1` [Example 138] belongs 0.162 µM; to `CN(C)CCOc1nccc(-c2c(-c3ccc(F)c(C(F)(F)F)c3)n[nH]c2C2CCN(C(=O)CO)CC2)n1` [Example 139], 0.854 µM.
With `CC(C)(C)OC(=O)N1CCC(c2[nH]nc(-c3ccc(Cl)cc3)c2-c2ccnc(NC3CCCC3)n2)CC1` [Example 140], the half-maximal inhibitory concentration (IC50) worked out at 0.01 µM.
In the case of `Clc1ccc(-c2n[nH]c(C3CCNCC3)c2-c2ccnc(NC3CCCC3)n2)cc1` [Example 141], the IC50 came to 0.01 µM.
Regarding `CN(C)CCNc1nccc(-c2c(-c3ccc(Cl)cc3)n[nH]c2C2CCN(C(=O)OC(C)(C)C)CC2)n1` [Example 143], the IC50 is 3.64 µM.
`CN(C)CCNc1nccc(-c2c(-c3ccc(Cl)cc3)n[nH]c2C2CCNCC2)n1` [Example 144]: the IC50 came out at 0.159 µM.
With `CN(C)CCNc1nccc(-c2c(-c3cccc(Cl)c3)n[nH]c2C2CCN(C(=O)OC(C)(C)C)CC2)n1` [Example 145], the IC50 is 4.1 µM.
With `CN(C)CCNc1nccc(-c2c(-c3ccc(F)c(C(F)(F)F)c3)n[nH]c2C2CCNCC2)n1` [Example 146], the concentration for half-maximal inhibition (IC50) was 0.261 µM.
As to `Fc1cc(Cl)ccc1-c1n[nH]c(C2CCNCC2)c1-c1ccnc(NC2CCCC2)n1` [Example 147], the IC50 is 0.0159 µM.
As to `CN1CCC(c2[nH]nc(-c3ccc(Cl)cc3)c2-c2ccnc(NC3CCCC3)n2)CC1` [Example 148], the half-inhibitory concentration (IC50) worked out at 0.0148 µM.
Take `Clc1ccc(-c2n[nH]c(C3CCNCC3)c2-c2ccnc(NC3CCN(Cc4ccccc4)CC3)n2)cc1` [Example 150]: the half-inhibitory concentration (IC50) amounted to 0.034 µM.
With `O=C(CO)N1CCC(c2[nH]nc(-c3ccc(Cl)cc3)c2-c2ccnc(NC3CCN(Cc4ccccc4)CC3)n2)CC1` [Example 151], the IC50 worked out at 0.053 µM.
With `CN1CCC(c2[nH]nc(-c3ccc(Cl)cc3)c2-c2ccnc(NC3CCN(Cc4ccccc4)CC3)n2)CC1` [Example 152], the IC50 came to 0.075 µM.
As for `CN1CCC(c2[nH]nc(-c3ccc(Cl)cc3F)c2-c2ccnc(NC3CCCC3)n2)CC1` [Example 153], the figure is 0.0182 µM; as for `O=C(CO)N1CCC(c2[nH]nc(-c3ccc(Cl)cc3F)c2-c2ccnc(NC3CCCC3)n2)CC1` [Example 154], 0.0176 µM.
Take `CN(C)CCOc1nccc(-c2c(-c3ccc(F)c(C(F)(F)F)c3)n[nH]c2C2CCNCC2)n1` [Example 155]: the IC50 stood at 0.527 µM.
With `CN(C)CCOc1nccc(-c2c(-c3ccc(Cl)cc3F)n[nH]c2C2CCNCC2)n1` [Example 156], the IC50 is 0.637 µM and 0.627 µM.
Consider `CN(C)CCOc1nccc(-c2c(-c3ccc(Cl)cc3F)n[nH]c2C2CCN(C(=O)CO)CC2)n1` [Example 157], for which the IC50 was 1.07 µM and 0.847 µM.
As for `CN(C)CCOc1nccc(-c2c(-c3ccc(Cl)cc3F)n[nH]c2C2CCN(C(=O)CO)CC2)n1` [Example 158], the figure is 1.3 µM and 0.647 µM.
As to `CS(=O)(=O)N1CCC(c2[nH]nc(-c3ccc(Cl)cc3F)c2-c2ccnc(NC3CCCC3)n2)CC1` [Example 159], the IC50 stood at 0.0047 µM.
As for `CN(C)CCNc1nccc(-c2c(-c3ccc(Cl)cc3F)n[nH]c2C2CCN(C(=O)OC(C)(C)C)CC2)n1` [Example 160], the half-maximal inhibitory concentration (IC50) is 4.4 µM.
To `CN(C)CCNc1nccc(-c2c(-c3ccc(Cl)cc3F)n[nH]c2C2CCNCC2)n1` [Example 161] belongs 0.202 µM; to `CN(C)CCNc1nccc(-c2c(-c3ccc(Cl)cc3F)n[nH]c2C2CCN(C(=O)CO)CC2)n1` [Example 162], 0.474 µM; to `Fc1ccc(-c2n[nH]c(C3CCNCC3)c2-c2ccnc(NC3CCCC3)n2)cc1C(F)(F)F` [Example 164], 0.0225 µM.
To `FC(F)(F)c1cc(-c2n[nH]c(C3CCNCC3)c2-c2ccnc(NC3CCCC3)n2)ccc1NC1CCCC1` [Example 165] belongs 0.424 µM.
On to `CN(C)CCNc1nccc(-c2c(-c3ccc(F)c(C(F)(F)F)c3)n[nH]c2C2CCN(C)CC2)n1` [Example 166], for which the IC50 is 1.1 µM.
As for `CN1CCC(c2[nH]nc(-c3ccc(F)c(C(F)(F)F)c3)c2-c2ccnc(NC3CCCC3)n2)CC1` [Example 167], the half-maximal inhibitory concentration (IC50) is 0.0063 µM.
For `CN1CCC(c2[nH]nc(-c3ccc(Cl)cc3F)c2-c2ccnc(NC3CCCC3)n2)CC1` [Example 168], the IC50 amounted to 1 µM.
Take `O=C(CO)N1CCC(c2[nH]nc(-c3ccc(F)c(C(F)(F)F)c3)c2-c2ccnc(NC3CCCC3)n2)CC1` [Example 169]: the half-maximal inhibitory concentration (IC50) was found to be 0.0032 µM.

The term IC50 denotes the concentration needed to halve the response being measured.

Values taken from patent US20040082551A1, “Novel pyrazoles and their use as p38 kinase inhibitors” (priority 2002, published 2004).
